# The source made the active and inactive calls. No cut-off for these calls is given here.
# Tests used:
# [1] = tested on: A549; experiment: Antiproliferative activity against human A549 cells assessed as inhibition of cell growth measured after 72 hrs by SRB method; format: functional, cell-based; details: A549, 72 h
# [2] = Water solubility of the compound […] at pH 9.0 incubated for 24 hrs under shaking condition by HPLC analysis; format: physicochemical
# [3] = Water solubility of the compound in PBS buffer at pH 7.4 incubated for 24 hrs under shaking condition by HPLC analysis; format: physicochemical
# [4] = Water solubility of the compound in PBS buffer at pH 2.0 incubated for 24 hrs under shaking condition by HPLC analysis; format: physicochemical
# [5] = Permeability of the compound in PBS buffer assessed as drug recovery at pH 7.4 incubated for 16 hrs by PAMPA method; format: ADME; details: read-out: Drug recovery
# [6] = tested on: A549; experiment: Antitumor activity against human A549 cells xenografted in female BALB/c nude mouse model assessed as decrease in tumor volume at 10 mg/kg via gavage fed with corn oil and measured every other day; format: functional, organism-based
# [7] = tested on: A549; experiment: Induction of cell apoptosis in human A549 cells assessed as increase in early apoptotic cells measured after 48 hrs by Annexin V-FITC/PI staining based flow cytometry analysis; format: functional; details: dose 0.05-0.5 µM
# [8] = tested on: A549; experiment: Induction of cell cycle arrest in human A549 cells assessed as accumulation at G2/M phase at high concentration measured after 48 hrs by flow cytometric analysis; format: functional, cell-based
# [9] = tested on: A549; experiment: Antitumor activity against human A549 cells xenografted in female BALB/c nude mouse model assessed as decrease in tumor weight at 10 mg/kg via gavage fed with corn oil and measured every other day; format: functional, organism-based
# [10] = tested on: NCI-H1299; experiment: Antiproliferative activity against human NCI-H1299 cells assessed as inhibition of cell growth measured after 72 hrs by SRB method; format: functional, cell-based; details: NCI-H1299, 72 h
# [11] = tested on: A549; experiment: Antitumor activity against human A549 cells xenografted in female BALB/c nude mouse model assessed as decrease in Ki-67 expression at 10 mg/kg via gavage by immunochemical staining based analysis; format: functional, organism-based
# [12] = tested on: A549; experiment: Antitumor activity against human A549 cells xenografted in female BALB/c nude mouse model assessed as decrease in TbetaRI level at 10 mg/kg via gavage by immunochemical staining based analysis; format: functional, organism-based
# [13] = tested on: A549; experiment: Inhibition of cell invasion in human A549 cells incubated for 48 hrs by crystal violet staining based transwell assay; format: functional; details: dose 0.05-0.5 µM
# [14] = tested on: A549; experiment: Inhibition of cell invasion in human A549 cells at 0.5 uM incubated for 48 hrs by crystal violet staining based transwell assay relative to control; format: functional
# [15] = tested on: NCI-H522; experiment: Antiproliferative activity against human NCI-H522 cells assessed as inhibition of cell growth measured after 72 hrs by SRB method; format: functional, cell-based; details: NCI-H522, 72 h
# [16] = tested on: A549; experiment: Antiproliferative activity against human A549 cells harbouring si-NC at 0.5 uM by Western blot analysis relative to control; format: functional
# [17] = tested on: A549; experiment: Antiproliferative activity against human A549 cells harbouring TbetaI knockout at 0.5 uM by Western blot analysis; format: functional, cell-based
# [18] = tested on: A549; experiment: Inhibition of cell migration in human A549 cells incubated for 48 hrs by wound healing assay; format: functional, cell-based; details: dose 0.05-0.5 µM
# [19] = tested on: NCI-H441; experiment: Antiproliferative activity against human NCI-H441 cells assessed as inhibition of cell growth measured after 72 hrs by SRB method; format: functional, cell-based; details: NCI-H441, 72 h
# [20] = tested on: A549; experiment: Downregulation of TbetaRI protein expression in human A549 cells measured after 48 hrs by Western blot analysis; format: functional, cell-based; details: dose 0.05-0.5 µM
# [21] = tested on: A549; experiment: Inhibition of colony formation in human A549 cells at 0.5 uM measured after 48 days by crystal violet staining based inverted microscopic analysis relative to control; format: functional; details: A549, 1152 h, time 48 day
# [22] = tested on: NCI-H1299; experiment: Inhibition of colony formation in human NCI-H1299 cells at 0.05 to 0.5 uM measured after 48 hrs by crystal violet staining based inverted microscopic analysis; format: functional, cell-based; details: dose 0.05-0.5 µM
# [23] = tested on: A549; experiment: Inhibition of cell migration in human A549 cells at 0.5 uM incubated for 48 hrs by wound healing assay relative to control; format: functional
# [24] = tested on: A549; experiment: Induction of cell apoptosis in human A549 cells assessed as increase in early apoptotic cells at 0.05 uM measured after 48 hrs by Annexin V-FITC/PI staining based flow cytometry analysis; format: functional
# [25] = tested on: A549; experiment: Downregulation of Smad2/3 phosphorylation level in human A549 cells measured after 48 hrs by Western blot analysis; format: functional, cell-based; details: dose 0.05-0.5 µM
# [26] = tested on: NCI-H1299; experiment: Antiproliferative activity against human NCI-H1299 cells harbouring TbetaI by Western blot analysis; format: functional, cell-based; details: dose 0.05-0.5 µM
# [27] = tested on: A549; experiment: Antitumor activity against human A549 cells xenografted in female BALB/c nude mouse model assessed as decrease in TbetaRI expression level at 10 mg/kg via gavage by Western blot analysis; format: functional, organism-based
# [28] = tested on: A549; experiment: Induction of cell cycle arrest in human A549 cells assessed as accumulation at G2/M phase measured after 48 hrs by flow cytometric analysis; format: functional, cell-based; details: dose 0.05-0.5 µM
# [29] = Toxicity in female BALB/c nude mouse assessed as effect on body weight loss at 10 mg/kg via gavage fed with corn oil for every other day; format: organism-based; details: in vivo, po
structure (smiles),measurement,setting,value
O=C(NCCO)c1cccc2c3c([nH]c12)CN(C(=O)Cc1ccco1)CC3,IC50,[1],4010 nM
O=C(NC1CCCC(O)C1)c1cccc2c3c([nH]c12)CN(C(=O)Cc1ccccc1F)CC3 (stereo not drawn),IC50,[1],120 nM
O=C(NC1CCCC1O)c1cccc2c3c([nH]c12)CN(C(=O)Cc1cccs1)CC3 (stereo not drawn),IC50,[1],70 nM
CC(=O)Nc1cc(C(=O)NCCO)c2[nH]c3c(c2c1)CCN(C(=O)Cc1ccccc1F)C3,IC50,[1],> 5000 nM
O=C(NC1CCCC1O)c1cccc2c3c([nH]c12)CN(C(=O)Cc1ccccc1F)CC3 (stereo not drawn),IC50,[1],930 nM
O=C(Cc1ccccc1)N1CCc2c([nH]c3ccccc23)C1,solubility thermodynamic at 24 h,[2],10.7 µM
same,solubility thermodynamic at 24 h,[3],7.24 µM
same,solubility thermodynamic at 24 h,[4],2.23 µM
same,IC50,[1],9130 nM
same,recovery at 16 h,[5],24.4%
O=C(NCCO)c1cccc2c3c([nH]c12)CN(C(=O)Cc1ccccc1F)CC3,IC50,[1],220 nM
O=C(NC12CC3CC(CC(O)(C3)C1)C2)c1cccc2c3c([nH]c12)CN(C(=O)Cc1ccccc1F)CC3,IC50,[1],130 nM
O=C(NC1CCC(O)C1)c1cccc2c3c([nH]c12)CN(C(=O)Cc1cccs1)CC3 (stereo not drawn),solubility thermodynamic at 24 h,[2],50.4 µM
same,Activity,[6],Active
same,Activity,[7],Dose-dependent-effect
same,Activity,[8],Active
same,Activity,[9],Active
same,IC50,[10],210 nM
same,Activity,[11],Active
same,Activity,[12],Active
same,inhibition,[13],Dose-dependent-effect
same,solubility thermodynamic at 24 h,[3],41.4 µM
same,inhibition at 0.5 µM,[14],100%
same,IC50,[15],260 nM
same,Activity,[16],100%
same,Activity,[17],inactive
same,inhibition,[18],Dose-dependent-effect
same,IC50,[19],90 nM
same,Activity,[20],Dose-dependent-effect
same,inhibition at 0.5 µM,[21],100%
same,inhibition,[22],Active
same,inhibition at 0.5 µM,[23],100%
same,Activity,[24],Active
same,Activity,[25],Dose-dependent-effect
same,Activity,[26],Dose-dependent-effect
same,solubility thermodynamic at 24 h,[4],40 µM
same,Activity,[27],Active
same,Activity,[28],Dose-dependent-effect
same,Activity,[29],Non-toxic
same,IC50,[1],50 nM
same,recovery at 16 h,[5],65.8%
O=C(NCCO)c1cccc2c3c([nH]c12)CN(C(=O)NCc1ccccc1F)CC3,IC50,[1],> 5000 nM
O=C(Cc1ccccc1F)N1CCc2c([nH]c3c(C(=O)N4CCC(O)C4)cccc23)C1 (stereo not drawn),IC50,[1],> 5000 nM
O=C(Cc1ccccc1F)N1CCc2c([nH]c3c(C(=O)N4CCC(O)CC4)cccc23)C1,IC50,[1],> 5000 nM
NC1CCC(NC(=O)c2cccc3c4c([nH]c23)CN(C(=O)Cc2ccccc2F)CC4)C1 (stereo not drawn),IC50,[1],> 5000 nM
NC1CCC(OC(=O)c2cccc3c4c([nH]c23)CN(C(=O)Cc2ccccc2F)CC4)CC1 (stereo not drawn),IC50,[1],> 5000 nM
CN(Cc1cnc2nc(N)nc(N)c2n1)c1ccc(C(=O)N[C@@H](CCC(=O)O)C(=O)O)cc1 [METHOTREXATE],recovery at 16 h,[5],96.2%
O=C(Cc1ccccc1F)N1CCc2c([nH]c3c(C(=O)N4CCC(CO)CC4)cccc23)C1,IC50,[1],> 5000 nM
O=C(NC1CCC(O)C1)c1cccc2c3c([nH]c12)CN(C(=O)Cc1ccccc1F)CC3 (stereo not drawn),IC50,[1],220 nM
O=C(Cc1ccccc1F)N1CCc2c([nH]c3c(C(=O)N4CCN(C5COC5)CC4)cccc23)C1,IC50,[1],> 5000 nM
C=CC(=O)Nc1cc(C(=O)NCCO)c2[nH]c3c(c2c1)CCN(C(=O)Cc1ccccc1F)C3,IC50,[1],> 5000 nM
O=C(NCCO)c1cccc2c3c([nH]c12)CN(C(=O)Nc1ccccc1F)CC3,IC50,[1],> 5000 nM
O=C(NCCO)c1cccc2c3c([nH]c12)CN(C(=O)Cc1c(F)cccc1F)CC3,IC50,[1],> 5000 nM
O=C(NC1CCC(C(=O)O)C1)c1cccc2c3c([nH]c12)CN(C(=O)Cc1ccccc1F)CC3 (stereo not drawn),IC50,[1],> 5000 nM
C[C@]12CC[C@H]3[C@@H](CCC4=CC(=O)CC[C@@]43C)[C@@H]1CC[C@@H]2O [TESTOSTERONE],recovery at 16 h,[5],85.6%
O=C(Cc1ccccc1F)N1CCc2c([nH]c3c(C(=O)N4CCNCC4)cccc23)C1,IC50,[1],> 5000 nM
O=C(NCCO)c1cc(NC(=O)C2CCNCC2)cc2c3c([nH]c12)CN(C(=O)Cc1ccccc1F)CC3,IC50,[1],> 5000 nM
NCCC(=O)Nc1cc(C(=O)NCCO)c2[nH]c3c(c2c1)CCN(C(=O)Cc1ccccc1F)C3,IC50,[1],> 5000 nM
O=C(NC1CCCCC1O)c1cccc2c3c([nH]c12)CN(C(=O)Cc1ccccc1F)CC3 (stereo not drawn),IC50,[1],> 5000 nM
O=C(NCCO)c1cc(NC(=O)C2CCOCC2)cc2c3c([nH]c12)CN(C(=O)Cc1ccccc1F)CC3,IC50,[1],> 5000 nM
O=C(NC1CCC(O)CC1)c1cccc2c3c([nH]c12)CN(C(=O)Cc1ccccc1F)CC3 (stereo not drawn),IC50,[1],490 nM
O=C(NCCO)c1cccc2c3c([nH]c12)CN(S(=O)(=O)Cc1ccccc1F)CC3,IC50,[1],1640 nM
O=C(NCCO)c1cccc2c3c([nH]c12)CN(C(=O)Cc1cccs1)CC3,IC50,[1],380 nM

# — ChEMBL document CHEMBL6115037, “Discovery of novel small molecules targeting TGF-β signaling for the treatment of non-small cell lung cancer” (Eur J Med Chem, 2025)
